{
  "source": "BigSolDB 2.1",
  "data": [
    {"molecule": "Cc1c(C(=O)/C=C/c2ccccc2)[n+](=O)c2ccccc2n1[O-]", "values": [
      {"measurement": "solubility (mole fraction)", "setting": "in DMF, 283.15 K", "result": 0.00549},
      {"measurement": "solubility (mole fraction)", "setting": "in DMF, 288.15 K", "result": 0.00639},
      {"measurement": "solubility (mole fraction)", "setting": "in DMF, 293.15 K", "result": 0.00748},
      {"measurement": "solubility (mole fraction)", "setting": "in DMF, 298.15 K", "result": 0.00856},
      {"measurement": "solubility (mole fraction)", "setting": "in DMF, 303.15 K", "result": 0.00978},
      {"measurement": "solubility (mole fraction)", "setting": "in DMF, 308.15 K", "result": 0.0111},
      {"measurement": "solubility (mole fraction)", "setting": "in DMF, 313.15 K", "result": 0.0127},
      {"measurement": "solubility (mole fraction)", "setting": "in DMF, 318.15 K", "result": 0.0145},
      {"measurement": "solubility (mole fraction)", "setting": "in DMF, 323.15 K", "result": 0.0163},
      {"measurement": "solubility (mole fraction)", "setting": "in DMF, 328.15 K", "result": 0.0187},
      {"measurement": "solubility (mole fraction)", "setting": "in DMSO, 293.15 K", "result": 0.00722},
      {"measurement": "solubility (mole fraction)", "setting": "in DMSO, 298.15 K", "result": 0.00807},
      {"measurement": "solubility (mole fraction)", "setting": "in DMSO, 303.15 K", "result": 0.00913},
      {"measurement": "solubility (mole fraction)", "setting": "in DMSO, 308.15 K", "result": 0.0103},
      {"measurement": "solubility (mole fraction)", "setting": "in DMSO, 313.15 K", "result": 0.0117},
      {"measurement": "solubility (mole fraction)", "setting": "in DMSO, 318.15 K", "result": 0.0132},
      {"measurement": "solubility (mole fraction)", "setting": "in DMSO, 323.15 K", "result": 0.0149},
      {"measurement": "solubility (mole fraction)", "setting": "in DMSO, 328.15 K", "result": 0.0167},
      {"measurement": "solubility (mole fraction)", "setting": "in ethanol, 283.15 K", "result": "9.81e-05"},
      {"measurement": "solubility (mole fraction)", "setting": "in ethanol, 288.15 K", "result": 0.000123},
      {"measurement": "solubility (mole fraction)", "setting": "in ethanol, 293.15 K", "result": 0.000151},
      {"measurement": "solubility (mole fraction)", "setting": "in ethanol, 298.15 K", "result": 0.00019},
      {"measurement": "solubility (mole fraction)", "setting": "in ethanol, 303.15 K", "result": 0.000233},
      {"measurement": "solubility (mole fraction)", "setting": "in ethanol, 308.15 K", "result": 0.000288},
      {"measurement": "solubility (mole fraction)", "setting": "in ethanol, 313.15 K", "result": 0.000351},
      {"measurement": "solubility (mole fraction)", "setting": "in ethanol, 318.15 K", "result": 0.000425},
      {"measurement": "solubility (mole fraction)", "setting": "in ethanol, 323.15 K", "result": 0.000512},
      {"measurement": "solubility (mole fraction)", "setting": "in ethanol, 328.15 K", "result": 0.000611},
      {"measurement": "solubility (mole fraction)", "setting": "in isopropanol, 283.15 K", "result": "8.14e-05"},
      {"measurement": "solubility (mole fraction)", "setting": "in isopropanol, 288.15 K", "result": 0.000104},
      {"measurement": "solubility (mole fraction)", "setting": "in isopropanol, 293.15 K", "result": 0.000133},
      {"measurement": "solubility (mole fraction)", "setting": "in isopropanol, 298.15 K", "result": 0.00017},
      {"measurement": "solubility (mole fraction)", "setting": "in isopropanol, 303.15 K", "result": 0.000217},
      {"measurement": "solubility (mole fraction)", "setting": "in isopropanol, 308.15 K", "result": 0.000278},
      {"measurement": "solubility (mole fraction)", "setting": "in isopropanol, 313.15 K", "result": 0.000348},
      {"measurement": "solubility (mole fraction)", "setting": "in isopropanol, 318.15 K", "result": 0.000437},
      {"measurement": "solubility (mole fraction)", "setting": "in isopropanol, 323.15 K", "result": 0.000541},
      {"measurement": "solubility (mole fraction)", "setting": "in isopropanol, 328.15 K", "result": 0.000668},
      {"measurement": "solubility (mole fraction)", "setting": "in water, 283.15 K", "result": "2.49e-06"},
      {"measurement": "solubility (mole fraction)", "setting": "in water, 288.15 K", "result": "2.93e-06"},
      {"measurement": "solubility (mole fraction)", "setting": "in water, 293.15 K", "result": "3.4e-06"},
      {"measurement": "solubility (mole fraction)", "setting": "in water, 298.15 K", "result": "3.95e-06"},
      {"measurement": "solubility (mole fraction)", "setting": "in water, 303.15 K", "result": "4.62e-06"},
      {"measurement": "solubility (mole fraction)", "setting": "in water, 308.15 K", "result": "5.32e-06"},
      {"measurement": "solubility (mole fraction)", "setting": "in water, 313.15 K", "result": "6.12e-06"},
      {"measurement": "solubility (mole fraction)", "setting": "in water, 318.15 K", "result": "7e-06"},
      {"measurement": "solubility (mole fraction)", "setting": "in water, 323.15 K", "result": "7.96e-06"},
      {"measurement": "solubility (mole fraction)", "setting": "in water, 328.15 K", "result": "9.03e-06"}
    ]}
  ]
}
